Measured values from patent US10023565B2, “N,N′ substituted piperidinamine compounds, and preparation method and usage thereof” (Institute of Pharmacology and Toxicology Academy of …, priority 2013, dated 2018).

Target: T1, Hsp70 (Homo sapiens, UniProt P0DMV8)
T1 construct: purchased Enzo Life Sciences ADI-ESP-550-D
Assay: Measurement of affinity between compounds and Hsp70 (SPR, BIACORE T100)
Format: binding
Protocol: Instrument for measuring the affinity between Example compounds and Hsp70 is BIACORE T100 Biomolecular Interaction Analysis (GE, USA), and the positive control drug is VER-155008 that is well-recognized as Hsp70 inhibitor now, and, on the basis of the measured results, according to binding characteristics between the compounds and protein, the binding constant (equilibrium dissociation constant KD) between drugs and protein is calculated by selecting steady state model with the formula: Conc*Rmax/[conc+KD]+offset.
1. Instrument: BIACORE T100 Biomolecular Interaction Analysis (GE, USA)
2. Reagents: PBS Buffer (×10), P20, CM5 chip (GE, USA), Hsp70 (human, ADI-ESP-550-D), manufactured by Enzo Life Sciences.
30 mM mother liquor of the compound was formulated with DMSO, which was diluted to 2 mM application solution with DMSO before use. 5 μl of the application solution was taken and diluted with 95 μl 1.05×PBS to 100 μM, and then diluted in turn with PBS containing 5% DMSO to […]. PBS containing 5% DMSO was used as solvent control.
Hsp70 protein was diluted with 10 mmol/L sodium acetate buffer solution (pH 5.0) to 30 μg/ml, and coupled directly on a hydrophilic carboxylmethyl dextran matrix sensor chip M5 through normalized primary amine coupling reaction, RU=11209, and then the chip was balanced for 1-2 h with PBS Buffer at […].
At a flow rate of […], with PBS containing 5% DMSO as mobile phase, at 25° C., the compound was introduced in the sequence of 0.003, 0.01, 0.03, 0.1, 0.3, 1, 3 and 10 μM, with binding time of 90 seconds, and dissociation time of 120 seconds.
According to binding characteristics between the compounds and protein, the binding constant (equilibrium dissociation constant KD) between drugs and protein was calculated by selecting steady state model with the formula: Conc*Rmax/[conc+KD]+offset.

T1 sequence (P0DMV8 whole entry): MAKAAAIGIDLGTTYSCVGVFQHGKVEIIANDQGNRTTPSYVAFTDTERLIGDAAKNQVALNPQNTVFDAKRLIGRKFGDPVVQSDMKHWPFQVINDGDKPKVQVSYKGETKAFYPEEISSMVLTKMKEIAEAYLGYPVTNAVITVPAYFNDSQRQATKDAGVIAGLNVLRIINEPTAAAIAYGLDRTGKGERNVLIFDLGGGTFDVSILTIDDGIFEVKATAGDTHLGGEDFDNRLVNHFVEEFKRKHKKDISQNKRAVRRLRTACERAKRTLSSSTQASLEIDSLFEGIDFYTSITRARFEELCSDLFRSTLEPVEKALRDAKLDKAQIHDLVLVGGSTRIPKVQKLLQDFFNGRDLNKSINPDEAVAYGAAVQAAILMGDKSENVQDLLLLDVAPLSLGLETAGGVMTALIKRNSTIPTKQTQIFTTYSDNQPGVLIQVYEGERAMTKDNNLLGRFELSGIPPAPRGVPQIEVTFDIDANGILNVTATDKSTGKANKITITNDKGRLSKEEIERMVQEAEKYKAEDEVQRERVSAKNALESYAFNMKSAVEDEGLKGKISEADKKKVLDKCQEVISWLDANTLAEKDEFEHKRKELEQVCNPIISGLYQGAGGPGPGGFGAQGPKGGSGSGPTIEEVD

With CSc1nccc(N2CCC(N(C)Cc3ccc(C#N)cc3)CC2)n1 [Example 36, N-methyl-N-(4-cyanobenzyl)-N-[1-(2-methylthiopyrimidin-4-yl)piperidin-4-yl]amine] as the compound, how does the “KD compared with positive control drug VER-155008” value read?
The value was “KD values equivalent to that of the positive control drug VER-155008”.

What about the Kd (steady state model, 25° C., read-out: KD (binding constant between the compounds and Hsp70)) of the same compound?
The Kd was 246 nM.
